Test results taken from patent US9695155B2, “Herbicidal substituted pyrimidinyloxy benzene compounds” (E. I. DU PONT DE NEMOURS AND COMPANY, priority 2013, dated 2017).

Tests used:
winter wheat = assay: Test D postemergence; type: in vivo, Triticum aestivum; details: Triticum aestivum, post-emergence; for plant injury at 16 g/ha: 16 g ai/ha, scale 0-100, read-out: Plant response rating, Wheat, Winter; for plant injury at 31 g/ha: 31 g ai/ha; for plant injury at 31 g/ha / plant injury at 62 g/ha / plant injury at 125 g/ha: scale 0 to 100 (0 no effect, 100 complete control), read-out: Plant response rating, Wheat, Winter; for plant injury at 62 g/ha: 62 g ai/ha; for plant injury at 125 g/ha: 125 g ai/ha
Description: (§1) Seeds of plant species selected from bluegrass (annual bluegrass, Poa annua), blackgrass (Alopecurus myosuroides), canarygrass (littleseed canarygrass, Phalaris minor), chickweed (common chickweed, Stellaria media), galium (catchweed bedstraw, Galium aparine), bromegrass, downy (downy bromegrass, Bromus tectorum), field poppy (Papaver rhoeas), field violet (Viola arvensis), green foxtail (Setaria viridis), deadnettle (henbit deadnettle, Lamium amplexicaule), Italian ryegrass (Lolium multiflorum), kochia (Kochia scoparia), lambsquarters (Chenopodium album), oilseed rape (Brassica napus), pigweed (Amaranthus retroflexus), chamomile (scentless chamomile, Matricaria inodora), Russian thistle (Salsola kali), speedwell (bird's-eye speedwell, Veronica persica), spring barley (Hordeum vulgare), spring wheat (Triticum aestivum), wild buckwheat (Polygonum convolvulus), wild mustard (Sinapis arvensis), wild oat (Avena fatua), wild radish (Raphanus raphanistrum), windgrass (Apera spica-venti), winter barley (Hordeum vulgare), and winter wheat (Triticum aestivum) were planted into a silt loam soil and treated preemergence with test chemicals formulated in a non-phytotoxic solvent mixture which included a surfactant.
(§2) At the same time, these species were planted in pots containing Redi-Earth® planting medium (Scotts Company, 14111 Scottslawn Road, Marysville, Ohio 43041) comprising spaghnum peat moss, vermiculite, wetting agent and starter nutrients and treated with postemergence applications of the test chemicals formulated in the same manner. Plants ranged in height from 2 to 18 cm (1- to 4-leaf stage). Treated plants and controls were maintained in a controlled growth environment for 7 to 21 days after which time all species were compared to controls and visually evaluated. Plant response ratings, summarized in Table D, are based on a scale of 0 to 100 where 0 is no effect and 100 is complete control. A dash (-) response means no test result.

spring wheat = assay: Test D postemergence; type: in vivo, Triticum aestivum; details: Triticum aestivum, post-emergence; for plant injury at 16 g/ha: 16 g ai/ha, scale 0-100, read-out: Plant response rating, Wheat, Spring; for plant injury at 31 g/ha: 31 g ai/ha; for plant injury at 31 g/ha / plant injury at 62 g/ha / plant injury at 125 g/ha: scale 0 to 100 (0 no effect, 100 complete control), read-out: Plant response rating, Wheat, Spring; for plant injury at 62 g/ha: 62 g ai/ha; for plant injury at 125 g/ha: 125 g ai/ha
Description: as §1, §2

speedwell = assay: Test D preemergence; type: in vivo, Veronica persica; details: Veronica persica, pre-emergence; for pest or weed control at 16 g/ha: 16 g ai/ha; for pest or weed control at 16 g/ha / pest or weed control at 31 g/ha: scale 0 (no effect) to 100 (complete control), read-out: Plant response rating, Speedwell; for pest or weed control at 31 g/ha: 31 g ai/ha; for pest or weed control at 125 g/ha: 125 g ai/ha
Description: as §1, §2

bluegrass = assay: Test D postemergence; type: in vivo, Poa annua; details: Poa annua, post-emergence, Postemergence, scale 0 to 100 (0 no effect, 100 complete control), read-out: Plant response rating, Bluegrass; for pest or weed control at 16 g/ha: 16 g ai/ha; for pest or weed control at 31 g/ha: 31 g ai/ha; for pest or weed control at 62 g/ha: 62 g ai/ha; for pest or weed control at 125 g/ha: 125 g ai/ha
Description: as §1, §2

wild radish = assay: Test D preemergence; type: in vivo, Raphanus raphanistrum; details: Raphanus raphanistrum, pre-emergence; for pest or weed control at 16 g/ha: 16 g ai/ha; for pest or weed control at 16 g/ha / pest or weed control at 31 g/ha: scale 0 (no effect) to 100 (complete control), read-out: Plant response rating, Radish, Wild; for pest or weed control at 31 g/ha: 31 g ai/ha; for pest or weed control at 125 g/ha: 125 g ai/ha
Description: as §1, §2

green foxtail [1] = assay: Test D preemergence; type: in vivo, Setaria viridis; details: Setaria viridis, pre-emergence; for pest or weed control at 16 g/ha: 16 g ai/ha, scale 0 (no effect) to 100 (complete control), read-out: Plant response rating, Foxtail, Green; for pest or weed control at 31 g/ha: 31 g ai/ha; for pest or weed control at 31 g/ha / pest or weed control at 62 g/ha / pest or weed control at 125 g/ha: scale 0-100, read-out: Plant response rating, Foxtail, Green; for pest or weed control at 62 g/ha: 62 g ai/ha; for pest or weed control at 125 g/ha: 125 g ai/ha
Description: as §1, §2

canarygrass = assay: Test D preemergence; type: in vivo, Phalaris minor; details: Phalaris minor, pre-emergence; for pest or weed control at 16 g/ha: 16 g ai/ha, scale 0 (no effect) to 100 (complete control), read-out: Plant response rating, Canarygrass; for pest or weed control at 31 g/ha: 31 g ai/ha; for pest or weed control at 31 g/ha / pest or weed control at 62 g/ha / pest or weed control at 125 g/ha: scale 0-100, read-out: Plant response rating, Canarygrass; for pest or weed control at 62 g/ha: 62 g ai/ha; for pest or weed control at 125 g/ha: 125 g ai/ha
Description: as §1, §2

wild oat = assay: Test D postemergence; type: in vivo, Avena fatua; details: Avena fatua, post-emergence; for pest or weed control at 16 g/ha: 16 g ai/ha, scale 0-100, read-out: Plant response rating, Oat, Wild; for pest or weed control at 31 g/ha: 31 g ai/ha; for pest or weed control at 31 g/ha / pest or weed control at 62 g/ha / pest or weed control at 125 g/ha: scale 0 to 100 (0 no effect, 100 complete control), read-out: Plant response rating, Oat, Wild; for pest or weed control at 62 g/ha: 62 g ai/ha; for pest or weed control at 125 g/ha: 125 g ai/ha
Description: as §1, §2

deadnettle = assay: Test D preemergence; type: in vivo, Lamium amplexicaule; details: Lamium amplexicaule, pre-emergence; for pest or weed control at 16 g/ha: 16 g ai/ha, scale 0 (no effect) to 100 (complete control), read-out: Plant response rating, Deadnettle; for pest or weed control at 31 g/ha: 31 g ai/ha; for pest or weed control at 31 g/ha / pest or weed control at 62 g/ha / pest or weed control at 125 g/ha: scale 0-100, read-out: Plant response rating, Deadnettle; for pest or weed control at 62 g/ha: 62 g ai/ha; for pest or weed control at 125 g/ha: 125 g ai/ha
Description: as §1, §2

green foxtail [2] = assay: Test D postemergence; type: in vivo, Setaria viridis; details: Setaria viridis, post-emergence; for pest or weed control at 16 g/ha: 16 g ai/ha, scale 0-100, read-out: Plant response rating, Foxtail, Green; for pest or weed control at 31 g/ha: 31 g ai/ha; for pest or weed control at 31 g/ha / pest or weed control at 62 g/ha / pest or weed control at 125 g/ha: scale 0 to 100 (0 no effect, 100 complete control), read-out: Plant response rating, Foxtail, Green; for pest or weed control at 62 g/ha: 62 g ai/ha; for pest or weed control at 125 g/ha: 125 g ai/ha
Description: as §1, §2

[3] = scale 0-100, read-out: Plant response rating, Speedwell
[4] = scale 0-100, read-out: Plant response rating, Radish, Wild

| SMILES | plant injury at 16 g/ha (winter wheat) | plant injury at 31 g/ha (winter wheat) | plant injury at 62 g/ha (winter wheat) | plant injury at 125 g/ha (winter wheat) | plant injury at 16 g/ha (spring wheat) | plant injury at 31 g/ha (spring wheat) | plant injury at 62 g/ha (spring wheat) | plant injury at 125 g/ha (spring wheat) | pest or weed control at 16 g/ha (speedwell) | pest or weed control at 31 g/ha (speedwell) | pest or weed control at 125 g/ha (speedwell; [3]) | pest or weed control at 16 g/ha (bluegrass) | pest or weed control at 31 g/ha (bluegrass) | pest or weed control at 62 g/ha (bluegrass) | pest or weed control at 125 g/ha (bluegrass) | pest or weed control at 16 g/ha (wild radish) | pest or weed control at 31 g/ha (wild radish) | pest or weed control at 125 g/ha (wild radish; [4]) | pest or weed control at 16 g/ha (green foxtail [1]) | pest or weed control at 31 g/ha (green foxtail [1]) | other results |
| --- | --- | --- | --- | --- | --- | --- | --- | --- | --- | --- | --- | --- | --- | --- | --- | --- | --- | --- | --- | --- | --- |
| N#Cc1cccc(Oc2ncc(Cl)cn2)c1-n1cc(OCC(F)(F)F)cn1 [Compound 274, 3-[(5-chloro-2-pyrimidinyl)oxy]-2-[4-(2,2,2-trifluoroethoxy)-1H-pyrazol-1-yl]benzonitrile] | 10% | 20% | 20% | 30% | 10% | 15% | 15% | 25% | 100% | 100% | 100% | 20% | 25% | 30% | 30% | 5% | 5% | 85% | 15% | 75% | pest or weed control at 62 g/ha (green foxtail [1]): 100%; pest or weed control at 125 g/ha (green foxtail [1]): 100%; pest or weed control at 16 g/ha (canarygrass): 20%; pest or weed control at 31 g/ha (canarygrass): 20%; pest or weed control at 62 g/ha (canarygrass): 60%; pest or weed control at 125 g/ha (canarygrass): 85%; pest or weed control at 16 g/ha (wild oat): 20%; pest or weed control at 31 g/ha (wild oat): 30%; pest or weed control at 62 g/ha (wild oat): 35%; pest or weed control at 125 g/ha (wild oat): 40%; pest or weed control at 16 g/ha (deadnettle): 55%; pest or weed control at 31 g/ha (deadnettle): 100%; pest or weed control at 62 g/ha (deadnettle): 100%; pest or weed control at 125 g/ha (deadnettle): 100%; pest or weed control at 16 g/ha (green foxtail [2]): 15%; pest or weed control at 31 g/ha (green foxtail [2]): 20%; pest or weed control at 62 g/ha (green foxtail [2]): 25%; pest or weed control at 125 g/ha (green foxtail [2]): 45% |
| Fc1cccc(Oc2ncc(Cl)cn2)c1-n1cc(C(F)F)nn1 [Compound 141, 5-chloro-2-[2-[4-(difluoromethyl)-1H-1,2,3-triazol-1-yl]-3-fluorophenoxy]pyrimidine] | 5% | 5% | 20% | 50% | 15% | 20% | 25% | 35% | 100% | 100% | 100% | 5% | 20% | 35% | 40% | 40% | 98% | 100% | 10% | 100% | pest or weed control at 62 g/ha (speedwell; 62 g ai/ha, scale 0-100, read-out: Plant response rating, Speedwell): 100%; pest or weed control at 62 g/ha (wild radish; 62 g ai/ha, scale 0-100, read-out: Plant response rating, Radish, Wild): 100%; pest or weed control at 62 g/ha (green foxtail [1]): 100%; pest or weed control at 125 g/ha (green foxtail [1]): 100%; pest or weed control at 16 g/ha (canarygrass): 35%; pest or weed control at 31 g/ha (canarygrass): 75%; pest or weed control at 62 g/ha (canarygrass): 100%; pest or weed control at 125 g/ha (canarygrass): 100%; pest or weed control at 16 g/ha (wild oat): 5%; pest or weed control at 31 g/ha (wild oat): 10%; pest or weed control at 62 g/ha (wild oat): 15%; pest or weed control at 125 g/ha (wild oat): 30%; pest or weed control at 16 g/ha (deadnettle): 90%; pest or weed control at 31 g/ha (deadnettle): 100%; pest or weed control at 62 g/ha (deadnettle): 98%; pest or weed control at 125 g/ha (deadnettle): 100%; pest or weed control at 16 g/ha (green foxtail [2]): 15%; pest or weed control at 31 g/ha (green foxtail [2]): 20%; pest or weed control at 62 g/ha (green foxtail [2]): 45%; pest or weed control at 125 g/ha (green foxtail [2]): 100% |
